Patent US12378243B2, “Quinoline compounds as inhibitors of KRAS” (Incyte Corporation, priority 2021, dated 2025)

How the values were obtained:
[1] = test system: Caco-2 cells; experiment: Caco2 assay (permeability, A-B); type: in vitro ADME; conditions: Table 4; Papp absorptive direction (A-B), test compound 50 μM, 120 minutes at 37° C.
Outline: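 Caco-2 monolayers grown 22-25 days on Transwells, used only at TEER ≥300 Ω·cm^2. Compound at 50 μM in HBSS added apically, receiver HBSS with 4% BSA; 120 min at 37 °C. LCMS quantification; Papp from receiver flux slope, membrane area and initial donor amount.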

[2] = biological target: KRAS G12V mutant (Homo sapiens, UniProt P01116, G12V); experiment: GDP-GTP exchange assay, KRAS G12V; type: biochemical; conditions: bodipy loaded KRAS G12V 2.5 nM; 3 hours incubation after adding GppNHp-SOS1 mixture; read-out: G12V_exchange
[3] = biological target: KRAS G12D (Homo sapiens, UniProt P01116, G12D); experiment: GDP-GTP exchange assay, KRAS G12D; type: biochemical; conditions: bodipy-loaded KRAS G12D 2.5 nM, GppNHp 500 uM, SOS1 150 nM; 4 hours pre-incubation, 2 hours incubation; read-out: G12D_exchange
Outline: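 Nucleotide exchange started with 1 mM GppNHp and 300 nM SOS1, then 2 h at ambient temperature. IC50 from four-parameter logistic fit with variable Hill slope.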

Chain of KRAS G12V mutant (P01116 1-188 isoform P01116-2 G12V): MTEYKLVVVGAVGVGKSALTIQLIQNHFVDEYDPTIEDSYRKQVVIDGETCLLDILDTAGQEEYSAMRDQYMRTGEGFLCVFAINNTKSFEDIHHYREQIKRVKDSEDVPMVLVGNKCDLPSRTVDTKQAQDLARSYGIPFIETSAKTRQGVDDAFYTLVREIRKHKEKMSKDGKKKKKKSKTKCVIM
Chain of KRAS G12D (P01116 1-188 isoform P01116-2 G12D): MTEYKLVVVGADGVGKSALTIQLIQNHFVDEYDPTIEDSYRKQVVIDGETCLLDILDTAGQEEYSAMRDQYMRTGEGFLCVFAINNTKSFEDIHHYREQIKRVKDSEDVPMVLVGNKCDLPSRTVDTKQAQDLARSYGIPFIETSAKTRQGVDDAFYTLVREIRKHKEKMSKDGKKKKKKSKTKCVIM

Row | Structure (SMILES) | Caco-2 [1] | IC50 [2] [nM] | IC50 [3] [nM]
1 | CC(O)c1nc2c(F)c(-c3cccc(Cl)c3Cl)c(CCC#N)cc2c2c1cc([C@@H](C)NC(=O)C1(F)CC1)n2[C@H]1[C@H]2CN[C@@H]1C2 (stereo partly drawn) [Example 65, N-((1R)-1-(1-((1R,4R,5S)-2-Azabicyclo[2.1.1]hexan-5-yl)-8-(2-cyanoethyl)-7-(2,3-dichlorophenyl)-6-fluoro-4-(1-hydroxyethyl)-1H-pyrrolo[3,2-c]quinolin-2-yl)ethyl)-1-fluorocyclopropane-1-carboxamide] | +++ (a Caco-2 value of >1) | < 100 | < 100
2 | Cc1cc(C(C)c2cc3c(C)nc4c(F)c(-c5cccc(Cl)c5C)c(CCC#N)cc4c3n2[C@H]2[C@H]3CN[C@@H]2C3)c(=O)n(C)n1 (stereo partly drawn) [Example 67, 3-(1-((1R,4R,5S)-2-azabicyclo[2.1.1]hexan-5-yl)-7-(3-chloro-2-methylphenyl)-2-(1-(2,6-dimethyl-3-oxo-2,3-dihydropyridazin-4-yl)ethyl)-6-fluoro-4-methyl-1H-pyrrolo[3,2-c]quinolin-8-yl)propanenitrile] | +++ (a Caco-2 value of >1) | < 100 | < 100
3 | Cc1nc2c(F)c(-c3cccc(Cl)c3Cl)c(CCC#N)cc2c2c1cc([C@@H](C)NC(=O)N1CC(F)(F)C1)n2[C@H]1[C@H]2CN[C@@H]1C2 [Example 70, N-((1R)-1-(1-((1R,4R,5S)-2-azabicyclo[2.1.1]hexan-5-yl)-8-(2-cyanoethyl)-7-(2,3-dichlorophenyl)-6-fluoro-4-methyl-1H-pyrrolo[3,2-c]quinolin-2-yl)ethyl)-3,3-difluoroazetidine-1-carboxamide] | +++ (a Caco-2 value of >1) | < 100 | < 100
4 | Cc1nc2c(F)c(-c3cccc(Cl)c3Cl)c(CCC#N)cc2c2c1cc([C@@H](C)Nc1cnn(C)c1)n2[C@H]1[C@H]2CN[C@@H]1C2 [Example 71, 3-(1-((1R,4R,5S)-2-azabicyclo[2.1.1]hexan-5-yl)-7-(2,3-dichlorophenyl)-6-fluoro-4-methyl-2-((R)-1-((1-methyl-1H-pyrazol-4-yl)amino)ethyl)-1H-pyrrolo[3,2-c]quinolin-8-yl)propanenitrile] | +++ (a Caco-2 value of >1) | < 100 | < 100
5 | CN(C)C(=O)c1ccc(-c2nc3c(F)c(-c4cccc(Cl)c4Cl)c(CCC#N)cc3c3c2cc([C@H]2CCCN2C(=O)C2(F)CC2)n3[C@H]2[C@H]3CN[C@@H]2C3)cn1 [Example 72, 5-(1-((1R,4R,5S)-2-Azabicyclo[2.1.1]hexan-5-yl)-8-(2-cyanoethyl)-7-(2,3-dichlorophenyl)-6-fluoro-2-((R)-1-(1-fluorocyclopropane-1-carbonyl)pyrrolidin-2-yl)-1H-pyrrolo[3,2-c]quinolin-4-yl)-N,N-dimethylpicolinamide] | +++ (a Caco-2 value of >1) | < 100 | < 100

Second part, the compound after the results:

Row | Caco-2 [1] | IC50 [2] [nM] | IC50 [3] [nM] | Structure (SMILES)
6 | +++ (a Caco-2 value of >1) | < 100 | < 100 | CC(O)c1nc2c(F)c(-c3cccc(Cl)c3Cl)c(CCC#N)cc2c2c1cc([C@H]1C[C@H]3C[C@H]3N1C(=O)C1(F)CC1)n2[C@H]1[C@H]2CN[C@@H]1C2 (stereo partly drawn) [Example 63, 3-(1-((1R,4R,5S)-2-Azabicyclo[2.1.1]hexan-5-yl)-7-(2,3-dichlorophenyl)-6-fluoro-2-((1R,3R,5R)-2-(1-fluorocyclopropane-1-carbonyl)-2-azabicyclo[3.1.0]hexan-3-yl)-4-(1-hydroxyethyl)-1H-pyrrolo[3,2-c]quinolin-8-yl)propanenitrile]
7 | +++ (a Caco-2 value of >1) | 100 to 1000 | < 100 | Cc1nc2c(F)c(-c3cccc(Cl)c3Cl)c(CCC#N)cc2c2c1cc([C@H]1C[C@H]3C[C@H]3N1C(=O)C1(F)CC1)n2[C@H]1[C@H]2CN[C@@H]1C2 [Example 64, 3-(1-((1R,4R,5S)-2-Azabicyclo[2.1.1]hexan-5-yl)-7-(2,3-dichlorophenyl)-6-fluoro-2-((1R,3R,5R)-2-(1-fluorocyclopropane-1-carbonyl)-2-azabicyclo[3.1.0]hexan-3-yl)-4-methyl-1H-pyrrolo[3,2-c]quinolin-8-yl)propanenitrile]
8 | +++ (a Caco-2 value of >1) | < 100 | < 100 | CC(O)c1nc2c(F)c(-c3cccc(Cl)c3Cl)c(CCC#N)cc2c2c1cc([C@@H](C)NC(=O)C1(F)CCC1)n2[C@H]1[C@H]2CN[C@@H]1C2 (stereo partly drawn) [Example 66, N-((1R)-1-(1-((1R,4R,5S)-2-azabicyclo[2.1.1]hexan-5-yl)-8-(2-cyanoethyl)-7-(2,3-dichlorophenyl)-6-fluoro-4-(1-hydroxyethyl)-1H-pyrrolo[3,2-c]quinolin-2-yl)ethyl)-1-fluorocyclobutane-1-carboxamide]
9 | +++ (a Caco-2 value of >1) | < 100 | < 100 | Cc1nc2c(F)c(-c3cccc(Cl)c3Cl)c(CCC#N)cc2c2c1cc([C@@H](C)NC(=O)c1ccncn1)n2[C@H]1[C@H]2CN[C@@H]1C2 [Example 68, N-((1R)-1-(1-((1R,4R,5S)-2-azabicyclo[2.1.1]hexan-5-yl)-8-(2-cyanoethyl)-7-(2,3-dichlorophenyl)-6-fluoro-4-methyl-1H-pyrrolo[3,2-c]quinolin-2-yl)ethyl)pyrimidine-4-carboxamide]
10 | +++ (a Caco-2 value of >1) | < 100 | < 100 | Cc1nc2c(F)c(-c3cccc(Cl)c3Cl)c(CCC#N)cc2c2c1cc([C@@H](C)NC(=O)c1cccnn1)n2[C@H]1[C@H]2CN[C@@H]1C2 [Example 69, N-((1R)-1-(1-((1R,4R,5S)-2-azabicyclo[2.1.1]hexan-5-yl)-8-(2-cyanoethyl)-7-(2,3-dichlorophenyl)-6-fluoro-4-methyl-1H-pyrrolo[3,2-c]quinolin-2-yl)ethyl)pyridazine-3-carboxamide]
11 | +++ (a Caco-2 value of >1) | < 100 | < 100 | COC(=O)N1CCC[C@@H]1c1cc2c(-c3ccc(CN(C)C)c(F)c3F)nc3c(F)c(-c4cccc(Cl)c4Cl)c(CCC#N)cc3c2n1[C@H]1[C@H]2CN[C@@H]1C2 [Example 73, methyl (2R)-2-(1-((1R,4R,5S)-2-Azabicyclo[2.1.1]hexan-5-yl)-8-(2-cyanoethyl)-7-(2,3-dichlorophenyl)-4-(4-((dimethylamino)methyl)-2,3-difluorophenyl)-6-fluoro-1H-pyrrolo[3,2-c]quinolin-2-yl)pyrrolidine-1-carboxylate]
